Some test systems named below: HOP-18; IGROV-1; K562; HCT-116; SNB-75; RPMI-8226; SN12C; SF-295; EKVX; SF-539; LOX IMVI; RXF 393; SK-MEL-5; KM12; SK-OV-3; HT-29; HL-60; KM-20L2; NCI-H522; UACC-62.
What all share (test): NCI anticancer screen, dose series, 48 h

Structures are written as SMILES.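 Dose response: 5 concentrations. Exposure: 48 h. Format: 96-well plates. Endpoint: linear interpolation; highest concentration if not reached. Here, GI50 denotes the concentration required for 50% inhibition of growth.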 Activity calls are given as the source filed them. Rule as the data show it: active = GI50 up to about 1.1 µM and inactive = higher.

As to `CCCN1C(=O)/C(=C(/O)C(=O)OCC)C(c2ccc(OC)c(OC)c2)C1=O` (stereo not given), the GI50 in the assay on HOP-18 is > 100 µM (inactive); in the assay with IGROV-1, > 100 µM (inactive); in the assay with K562, > 100 µM (inactive); in the assay with HCT-116 it was > 100 µM (inactive); in the assay on SNB-75, > 100 µM (inactive); with RPMI-8226 it was > 93.8 µM (inactive). Besides, the GI50 in the assay with SN12C, in the assay with SF-295, in the assay with EKVX, in the assay on SF-539, in the assay with LOX IMVI and in the assay on RXF 393 was > 100 µM (inactive) in each case. In addition, the GI50 in the assay with SK-MEL-5, with KM12, with SK-OV-3, in the assay with HT-29, in the assay on HL-60 and in the assay with KM-20L2 was > 100 µM (inactive) in each case. In addition, the GI50 in the assay on NCI-H522 and in the assay on UACC-62 was > 100 µM (inactive) in each case.
With `C/C=C1\C[C@@H]2C(OC)Nc3cc(O)c(OC)cc3C(=O)N2C1` (stereo not given in full), the GI50 in the assay on HOP-18 was 0.0213 µM (active); in the assay with IGROV-1, < 0.01 µM (active); in the assay with K562 it was < 0.01 µM (active); in the assay on HCT-116 it was < 0.01 µM (active); with SNB-75 it was < 0.01 µM (active); with RPMI-8226, < 0.01 µM (active). In addition, the GI50 in the assay with SN12C was < 0.01 µM (active); with SF-295, < 0.01 µM (active); in the assay with EKVX, < 0.0103 µM (active); in the assay on SF-539 it was < 0.01 µM (active); in the assay with LOX IMVI, < 0.01 µM (active); with RXF 393, < 0.01 µM (active). Further, the GI50 is < 0.01 µM (active) in the assay on SK-MEL-5; 0.0173 µM (active) with KM12; < 0.01 µM (active) in the assay on SK-OV-3; < 0.01 µM (active) in the assay with HT-29; < 0.01 µM (active) in the assay with HL-60; 0.00887 µM (active) with KM-20L2. In addition, the GI50 with NCI-H522 and with UACC-62 was < 0.01 µM (active) throughout.
In the case of `CC1=NCCc2cc3[nH]c4ccccc4c3cc21`, the GI50 in the assay on HOP-18 is 18.7 µM (inactive); in the assay on IGROV-1 it was 26.9 µM (inactive); in the assay on K562, 9.79 µM (inactive); in the assay on HCT-116, 12.8 µM (inactive); with SNB-75 it was 23.2 µM (inactive); with RPMI-8226 it was 13.2 µM (inactive). The GI50 is 17.5 µM (inactive) in the assay with SN12C; 13.4 µM (inactive) in the assay with SF-295; 41.2 µM (inactive) in the assay on EKVX; 12.6 µM (inactive) in the assay on SF-539; 12.6 µM (inactive) in the assay with LOX IMVI; 6.4 µM (inactive) with RXF 393. Moreover, the GI50 was 11.8 µM (inactive) with SK-MEL-5; 20.8 µM (inactive) in the assay with KM12; 17.8 µM (inactive) in the assay with SK-OV-3; 14.8 µM (inactive) with HT-29; 12.1 µM (inactive) with HL-60; 11.2 µM (inactive) with KM-20L2. Also, the GI50 with NCI-H522 was 21.3 µM (inactive); in the assay with UACC-62, 14.3 µM (inactive).
As to `COc1cccc2c1C(=O)c1c(O)c3c(c(O)c1C2=O)C[C@@](O)(C(=O)CN1CCOCC1)C[C@@H]3OC1CC(N)C(O)C(C)O1` (stereo not given in full), the GI50 in the assay on HOP-18 is 0.000832 µM (active); in the assay on IGROV-1, 5.7 µM (inactive); in the assay on K562, 2.9 µM (inactive); with HCT-116 it was 1.89 µM (inactive); in the assay with SNB-75, 5.07 µM (inactive); with RPMI-8226, 1.61 µM (inactive). Also, the GI50 in the assay with SN12C is 2.4 µM (inactive); with SF-295, 3.72 µM (inactive); in the assay with EKVX, 10.4 µM (inactive); in the assay on SF-539, 4.09 µM (inactive); with LOX IMVI, 2.09 µM (inactive); with RXF 393, 6.41 µM (inactive). Also, the GI50 was 3.11 µM (inactive) with SK-MEL-5; 4.23 µM (inactive) with KM12; 7.62 µM (inactive) with SK-OV-3; 0.000764 µM (active) in the assay on HT-29; 0.895 µM (active) in the assay with HL-60; 9.77 µM (inactive) with KM-20L2. Moreover, the figures for the GI50 in the assay with NCI-H522 and in the assay with UACC-62 were 2.82 µM (inactive) and 3.58 µM (inactive), respectively.
With `O=C1C2=C(C3=NCCc4c[nH]c1c43)c1c(cc(Br)c(O)c1Br)CCN2`, the GI50 with HOP-18 is 20 µM (inactive); in the assay on IGROV-1 it was 13.6 µM (inactive); with K562 it was 15 µM (inactive); with HCT-116 it was 14.5 µM (inactive); with SNB-75 it was 16.3 µM (inactive); in the assay with RPMI-8226, 5.01 µM (inactive). Further, the GI50 in the assay with SN12C was 14.1 µM (inactive); with SF-295 it was 7.13 µM (inactive); with EKVX, 17.8 µM (inactive); with SF-539 it was 13.5 µM (inactive); in the assay on LOX IMVI, 6.67 µM (inactive); in the assay with RXF 393, 14.8 µM (inactive). Besides, the GI50 was 9.1 µM (inactive) in the assay with SK-MEL-5; 13.4 µM (inactive) in the assay with KM12; 7.41 µM (inactive) in the assay with SK-OV-3; 6.59 µM (inactive) in the assay on HT-29; 3.48 µM (inactive) in the assay with HL-60; 5.07 µM (inactive) in the assay on KM-20L2. The results for the GI50 with NCI-H522 and in the assay with UACC-62 were 2 µM (inactive) and 3.47 µM (inactive), respectively.
Regarding `CCOC(=O)CN(CC)C(=O)NC12CC3CC(CC(C3)C1)C2`, the GI50 in the assay on HOP-18 was 148 µM (inactive); in the assay on IGROV-1, 276 µM (inactive); in the assay with K562, 180 µM (inactive); in the assay with HCT-116 it was 189 µM (inactive); in the assay on SNB-75, 92.9 µM (inactive); in the assay with RPMI-8226 it was 141 µM (inactive). The GI50 is 288 µM (inactive) in the assay with SN12C; 230 µM (inactive) in the assay with SF-295; 207 µM (inactive) in the assay with EKVX; 244 µM (inactive) with SF-539; 151 µM (inactive) with LOX IMVI; 173 µM (inactive) with RXF 393. Besides, the GI50 in the assay with SK-MEL-5 is 109 µM (inactive); with KM12, 255 µM (inactive); in the assay on SK-OV-3, 218 µM (inactive); in the assay with HT-29 it was 166 µM (inactive); in the assay on HL-60, 103 µM (inactive); with KM-20L2, 170 µM (inactive). Moreover, the GI50 in the assay on NCI-H522 is 155 µM (inactive); with UACC-62 it was 116 µM (inactive).
